Test results from ChEMBL document CHEMBL1201862, “PubChem BioAssay data set” (2004).
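Interpolation was linear, between the two tested concentrations surrounding the appropriate level; five concentrations were tested over 48 hours in 96-well plates. GI50 is the concentration that inhibits growth by half.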 Active and inactive are the calls of the source. No stated cut-off is given here; in the data, active = GI50 up to about 1.1 µM and inactive = higher.

Experiments:
Experiment in all cases: NCI tumour cell line growth inhibition, 48 h
786-0 = test system: 786-0
A498 = test system: A498
CCRF-CEM = test system: CCRF-CEM
EKVX = test system: EKVX
HCT-15 = test system: HCT-15
NCI-H23 = test system: NCI-H23
OVCAR-3 = test system: OVCAR-3
OVCAR-4 = test system: OVCAR-4
OVCAR-5 = test system: OVCAR-5
SF-268 = test system: SF-268
SF-295 = test system: SF-295
SN12C = test system: SN12C
U-251 = test system: U-251
UO-31 = test system: UO-31
RXF 393 = test system: RXF 393
HL-60 = test system: HL-60

Measured: GI50

COc1ccc(C=C2C(=O)OC(C)(C)OC2=O)cc1OC
> 100 µM: HCT-15
inactive: 786-0 > 100 µM | A498 > 100 µM | CCRF-CEM > 100 µM | EKVX > 100 µM | NCI-H23 > 100 µM | OVCAR-3 > 100 µM | OVCAR-4 > 100 µM | OVCAR-5 > 100 µM | SF-268 > 100 µM | SF-295 > 100 µM | SN12C > 100 µM | U-251 > 100 µM | UO-31 > 100 µM

Cc1ccc(NC(=O)C(=O)Cc2nc3ccccc3o2)c(C)c1
inactive: 786-0 > 100 µM | EKVX > 100 µM | NCI-H23 > 100 µM | OVCAR-3 > 100 µM | OVCAR-4 > 100 µM | OVCAR-5 > 100 µM | RXF 393 > 100 µM | SF-268 > 100 µM | SF-295 > 100 µM | SN12C > 100 µM | U-251 > 100 µM | UO-31 > 100 µM
> 100 µM: HCT-15

O=[PH](O)c1ccsc1
inactive: 786-0 > 100 µM | A498 > 100 µM | CCRF-CEM > 100 µM | EKVX > 100 µM | HL-60 > 100 µM | NCI-H23 > 100 µM | RXF 393 > 100 µM | SF-268 > 100 µM | SN12C > 100 µM | U-251 > 100 µM | UO-31 > 100 µM
> 100 µM: HCT-15

COc1cc(C(C#N)NNc2nc(C)cc(O)n2)cc(OC)c1OC (centres undefined)
inactive: 786-0 > 100 µM | CCRF-CEM > 100 µM | HL-60 > 100 µM | NCI-H23 > 100 µM | OVCAR-3 > 100 µM | OVCAR-4 > 100 µM | OVCAR-5 > 100 µM | RXF 393 > 100 µM | SF-268 > 100 µM | SF-295 > 100 µM | SN12C > 100 µM | U-251 > 100 µM | UO-31 75 µM
> 100 µM: HCT-15

COc1ccc(/C=C/CN(C)CCc2ccccc2)cc1OC
> 100 µM: HCT-15
inactive: 786-0 > 100 µM | EKVX > 100 µM | NCI-H23 > 100 µM | OVCAR-3 73.3 µM | OVCAR-5 41.1 µM | RXF 393 51.2 µM | SF-268 > 100 µM | SF-295 53.5 µM | SN12C 66.1 µM | U-251 86.9 µM | UO-31 22.9 µM

O=C(CCc1n[nH]c(=S)o1)Nc1cc(Cl)c(Cl)cc1Cl
22.2 µM: HCT-15
inactive: 786-0 22.5 µM | A498 36.9 µM | CCRF-CEM 31.6 µM | EKVX 36.9 µM | HL-60 33.3 µM | NCI-H23 > 100 µM | OVCAR-3 41.8 µM | OVCAR-4 > 100 µM | OVCAR-5 54.3 µM | SF-268 26.5 µM | SF-295 > 100 µM | SN12C > 100 µM | U-251 35.2 µM | UO-31 68.2 µM

O=C1CCC2CCc3cccc4oc1c2c34 (centres undefined)
inactive: 786-0 > 100 µM | A498 > 100 µM | CCRF-CEM > 100 µM | EKVX 74.1 µM | HL-60 > 100 µM | NCI-H23 > 100 µM | OVCAR-3 > 100 µM | OVCAR-4 > 100 µM | RXF 393 > 100 µM | SF-295 10.6 µM | SN12C > 100 µM | U-251 > 100 µM
> 100 µM: HCT-15

C=C1C(C(=O)O)C1C(=O)O (centres undefined)
inactive: 786-0 > 100 µM | A498 > 100 µM | CCRF-CEM > 100 µM | EKVX > 100 µM | HL-60 > 100 µM | NCI-H23 > 100 µM | OVCAR-4 > 100 µM | OVCAR-5 > 100 µM | RXF 393 > 100 µM | SF-268 > 100 µM | SF-295 > 100 µM | SN12C > 100 µM | U-251 > 100 µM | UO-31 > 100 µM
> 100 µM: HCT-15

Cc1ccc(S(=O)(=O)n2c(-c3ccccc3)c(-c3ccccc3)c3ccccc32)cc1
inactive: 786-0 > 100 µM | CCRF-CEM > 100 µM | EKVX > 100 µM | HL-60 > 100 µM | NCI-H23 17.7 µM | OVCAR-3 > 100 µM | OVCAR-4 > 100 µM | OVCAR-5 > 100 µM | RXF 393 > 100 µM | SF-268 > 100 µM | SF-295 97.5 µM | SN12C > 100 µM | U-251 > 100 µM | UO-31 > 100 µM
> 100 µM: HCT-15

CCOc1cc(/C=C/C=C/C=C/c2ccc(N(C)C)cc2)[s+]c2ccccc12
inactive: 786-0 22.5 µM | A498 > 100 µM | CCRF-CEM 4.88 µM | EKVX > 100 µM | HL-60 1.72 µM | NCI-H23 29.9 µM | OVCAR-3 14.4 µM | OVCAR-4 19.3 µM | OVCAR-5 > 100 µM | RXF 393 10 µM | SF-268 13.5 µM | SF-295 33.8 µM | SN12C 21.2 µM | U-251 31.8 µM | UO-31 4.58 µM
26.4 µM: HCT-15
